The values below come from ChEMBL document CHEMBL1129985, “Cytotoxicity and antiestrogenicity of a novel series of basic diphenylethylenes” (J Med Chem, 1997).

Assay [1] relates to MCF7. Kind of assay: Cytotoxicity against MCF-7 cells in the absence of 1 uM E2 (estradiol). The class given is functional, Homo sapiens.
For assay [2], the system named is MCF7. Nature of the assay: Cytostaticity against MCF-7 cells in the presence of 1 uMolar E2 (estradiol). The following applies: Homo sapiens. It counts as functional, cell-based.
For assay [3], the system named is MCF7. Kind of assay: Cytotoxicity against MCF-7 cells in presence of 1 uM E2 (estradiol). The class given is functional, Homo sapiens.
The target in a further assay is Estrogen receptor (Homo sapiens, UniProt Q92731+P03372). The following applies: mvln.
The target of assay [4] is Estrogen receptor (Ovis aries) (UniProt P49885+Q9TU15). Kind of assay: Relative binding affinity for estrogen receptor in lamb uterus cytosol relative to estradiol. The class given is protein assay.

Consider `CC/C(=C(\c1ccccc1)c1ccc(OCCN(C)C)cc1)c1ccccc1` [TAMOXIFEN], for which the Cytotoxicity in the assay with MCF7 [1] turned out to be 9.8 µM; in the assay with MCF7 [3] it was 13 µM. Besides, the IC50 (commonly the midpoint of a concentration-inhibition curve) in the assay with MCF7 [2] stood at 8000 nM.

Regarding `CCN(CC)CCOc1ccc(/C(=C\C(C)C)c2ccc(O)cc2)cc1`, the Cytotoxicity amounted to 9.2 µM in the assay with MCF7 [1] and 9.4 µM with MCF7 [3]. Moreover, the values for the IC50 against Estrogen receptor and in the assay with MCF7 [2] were 500 nM and 2400 nM, respectively.

For `CCN(CC)CCOc1ccc(/C(=C/C(C)C)c2ccc(O)cc2)cc1`, the Cytotoxicity with MCF7 [1] turned out to be 8.4 µM; with MCF7 [3], 8.8 µM. Also, the IC50 on Estrogen receptor and with MCF7 [2] was 1700 nM in each case.

On to `CCCCCCCCCCCCCC/C=C(/c1ccc(O)cc1)c1ccc(OCCN(CC)CC)cc1`, for which the Cytotoxicity with MCF7 [1] and in the assay with MCF7 [3] was 30 µM each time. Further, the IC50 on Estrogen receptor turned out to be 8000 nM; in the assay on MCF7 [2] it was 7900 nM.

In the case of `CCCC/C=C(\c1ccc(O)cc1)c1ccc(OCCN(CC)CC)cc1`, the Cytotoxicity worked out at 2.9 µM with MCF7 [1] and 3 µM in the assay on MCF7 [3]. The IC50 against Estrogen receptor was found to be 1500 nM; in the assay with MCF7 [2] it was 1600 nM.

Regarding `CCCC/C(CC)=C(/c1ccc(O)cc1)c1ccc(OCCN(CC)CC)cc1.CCCC/C(CC)=C(\c1ccc(O)cc1)c1ccc(OCCN(CC)CC)cc1`, the Cytotoxicity in the assay on MCF7 [1] and in the assay on MCF7 [3] was 2.8 µM in each case. Also, the IC50 is 150 nM on Estrogen receptor and 1000 nM in the assay on MCF7 [2].

As to `CCCCC/C=C(\c1ccc(O)cc1)c1ccc(OCCN(CC)CC)cc1`, the Cytotoxicity in the assay with MCF7 [1] was found to be 2.7 µM; in the assay with MCF7 [3], 3.2 µM. The IC50 is 3200 nM at Estrogen receptor and 1100 nM in the assay on MCF7 [2]. Moreover, the relative binding affinity (RBA) in assay [4] was 0.1.

Take `CCCCC/C=C(/c1ccc(O)cc1)c1ccc(OCCN(C)C)cc1`: the Cytotoxicity with MCF7 [1] was determined as 8.5 µM; in the assay on MCF7 [3], 9.3 µM. The results for the IC50 against Estrogen receptor and in the assay with MCF7 [2] were 1500 nM and 2400 nM, respectively.

Turning to `CC(C)C=C(c1ccc(OCCN(C(C)C)C(C)C)cc1)c1ccc(OCCN(C(C)C)C(C)C)cc1`, the Cytotoxicity in the assay with MCF7 [1] came out at 3.6 µM; in the assay on MCF7 [3], 4.5 µM. In addition, the IC50 is 3100 nM against Estrogen receptor and 1600 nM in the assay on MCF7 [2].

For the compound `CCCCC/C=C(\c1ccc(O)cc1)c1ccc(OCCN2CCCC2)cc1`, the Cytotoxicity with MCF7 [1] and in the assay with MCF7 [3] was 2.9 µM in each case. Besides, the half-inhibitory concentration (IC50) against Estrogen receptor amounted to 3300 nM; with MCF7 [2] it was 1600 nM.

In the case of `CCCC/C=C(/c1ccc(O)cc1)c1ccc(OCCN(CC)CC)cc1`, the Cytotoxicity was 4.4 µM in the assay with MCF7 [1] and 5.2 µM in the assay with MCF7 [3]. In addition, the results for the IC50 against Estrogen receptor and with MCF7 [2] were 500 nM and 1700 nM, respectively.

Consider `CCCCCC/C=C(/c1ccc(O)cc1)c1ccc(OCCN(CC)CC)cc1`, for which the Cytotoxicity was determined as 2.9 µM in the assay on MCF7 [1] and 3 µM in the assay with MCF7 [3]. Moreover, the IC50 came to 1900 nM against Estrogen receptor and 1600 nM in the assay on MCF7 [2].

As to `CCCCCC=C(c1ccc(OCCN(CC)CC)cc1)c1ccc(OCCN(CC)CC)cc1`, the values for the Cytotoxicity with MCF7 [1] and with MCF7 [3] were 2.7 µM and 1.3 µM, respectively. Moreover, the IC50 against Estrogen receptor came out at 6000 nM; with MCF7 [2], 700 nM.

With `CCCCCCCCCCCCCC/C=C(\c1ccc(O)cc1)c1ccc(OCCN(CC)CC)cc1`, the Cytotoxicity with MCF7 [1] and with MCF7 [3] was 30 µM throughout. In addition, the IC50 on Estrogen receptor was 9500 nM; in the assay with MCF7 [2], 8000 nM.

Turning to `CCCCCC/C=C(\c1ccc(O)cc1)c1ccc(OCCN(CC)CC)cc1`, the values for the Cytotoxicity with MCF7 [1] and in the assay with MCF7 [3] were 2.8 µM and 3.8 µM, respectively. The IC50 turned out to be 2500 nM against Estrogen receptor and 1200 nM in the assay on MCF7 [2].

For the compound `CC/C(=C(\c1ccc(O)cc1)c1ccc(OCCN(C)C)cc1)c1ccccc1`, the Cytotoxicity with MCF7 [1] was 6 µM; with MCF7 [3], 9.4 µM. Also, the IC50 in the assay with MCF7 [2] was 8000 nM.

Consider `CCN(CC)CCOc1ccc(/C(=C/Cc2ccccc2)c2ccc(O)cc2)cc1`, for which the values for the Cytotoxicity in the assay with MCF7 [1] and with MCF7 [3] were 2.9 µM and 3 µM, respectively. Further, the IC50 at Estrogen receptor and in the assay with MCF7 [2] was 1700 nM in each case.

`CCCCC/C=C(/c1ccc(O)cc1)c1ccc(OCCN(CC)CC)cc1`: the values for the Cytotoxicity with MCF7 [1] and with MCF7 [3] were 2.9 µM and 3.2 µM, respectively. Besides, the IC50 at Estrogen receptor worked out at 900 nM; with MCF7 [2] it was 1600 nM.

On to `CC(C)N(CCOc1ccc(C(=C2CCCCC2)c2ccc(OCCN(C(C)C)C(C)C)cc2)cc1)C(C)C`, for which the Cytotoxicity in the assay on MCF7 [1] was found to be 30 µM; in the assay with MCF7 [3], 8 µM. Also, the IC50 is 2100 nM against Estrogen receptor and 4200 nM in the assay on MCF7 [2].

Regarding `CCCCCCCC/C=C(\c1ccc(O)cc1)c1ccc(OCCN(CC)CC)cc1`, the Cytotoxicity in the assay with MCF7 [1] turned out to be 3.6 µM; in the assay on MCF7 [3] it was 3 µM. In addition, the IC50 at Estrogen receptor amounted to 4700 nM; with MCF7 [2] it was 1600 nM.

On to `CC(C)N(CCOc1ccc(C(=C2CCCCC2)c2ccc(O)cc2)cc1)C(C)C`, for which the Cytotoxicity was 3.8 µM in the assay on MCF7 [1] and 5 µM in the assay with MCF7 [3]. Further, the results for the IC50 against Estrogen receptor and in the assay on MCF7 [2] were 200 nM and 1800 nM, respectively.

As for `CCCCC/C=C(\c1ccc(O)cc1)c1ccc(OCCN(C)C)cc1`, the Cytotoxicity in the assay on MCF7 [1] is 2.9 µM; in the assay with MCF7 [3], 3 µM. Also, the values for the half-maximal inhibitory concentration (IC50) at Estrogen receptor and with MCF7 [2] were 1800 nM and 1700 nM, respectively.

Turning to `CCCCCCCC/C=C(/c1ccc(O)cc1)c1ccc(OCCN(CC)CC)cc1`, the Cytotoxicity with MCF7 [1] turned out to be 5.1 µM; with MCF7 [3], 2.9 µM. The IC50 was 3500 nM against Estrogen receptor and 1700 nM in the assay on MCF7 [2].

With `CCN(CC)CCOc1ccc(/C(=C\Cc2ccccc2)c2ccc(O)cc2)cc1`, the Cytotoxicity was 3.2 µM with MCF7 [1] and 4.3 µM in the assay on MCF7 [3]. The IC50 at Estrogen receptor is 1300 nM; in the assay with MCF7 [2] it was 1800 nM.
